Each compound was assayed against DNA-PK (Homo sapiens, UniProt P78527) (assay: DNA-PK inhibition assay (radiometric, 33P-ATP)). Conditions: 100 μM ATP, competitive tight-binding fit.
Assay type: biochemical
Summary of the method: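 Approx. 6 nM DNA-PK with 10 µg/mL sheared dsDNA, 0.8 mg/mL peptide substrate and 100 µM 33P-ATP in HEPES pH 7.5, 10 mM MgCl2; 45 min, phosphoric acid quench. Phosphopeptide captured on filter plates and counted by scintillation; Ki from a competitive tight-binding model fit.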

Row | Compound | Ki [nM]
1 | COc1ccccc1[C@H](C)CNc1cc(-c2ccc(Nc3nc[nH]n3)nc2)ncn1 [Compound 198] | < 30
2 | CNCCNc1ccc(-c2cc(NC[C@@H](C)c3ccc(C(=O)NC)cc3OC)ncn2)cn1 [Compound 469] | < 30
3 | CNC(=O)c1ccnc2c([C@H](C)CNc3cc(-c4ccc(C#N)c(F)c4)ncn3)cccc12 [Compound 871] | < 30
4 | CNC(=O)c1ccnc2c([C@H](C)CNc3cc(-c4ccnc(C5CCC5)c4)ncn3)cccc12 [Compound 913] | < 30
5 | CNC(=O)c1ccnc2c([C@H](C)CNc3cc(-c4cnc5c(cnn5C(C)(C)C)c4)ncn3)cccc12 [Compound 619] | < 30
6 | CNC(=O)c1ccnc2c([C@H](C)CNc3cc(-c4ccc(NCCNCCO)nc4)ncn3)cccc12 [Compound 707] | < 30
7 | CCNc1ccc(-c2cc(NC[C@@H](C)c3ccc(C(=O)NC)cc3OC)ncn2)cn1 [Compound 360] | < 30
8 | CNC(=O)c1ccnc2c([C@H](C)CNc3cc(-c4ccnc(N)c4)ncn3)cccc12 [Compound 876] | < 30
9 | CNC(=O)c1ccc(-c2cc(NC[C@@H](C)c3cccc4c(C(=O)NC)ccnc34)ncn2)s1 [Compound 776] | < 30
10 | COc1ccccc1[C@H](C)CNc1cc(-c2ccc(NC3CCN(C)CC3)nc2)ncn1 [Compound 254] | < 30
11 | CNC(=O)c1ccnc2c([C@H](C)CNc3cc(-c4cnnc(C)c4)ncn3)cccc12 [Compound 841] | < 30
12 | CNC(=O)c1ccnc2c([C@H](C)CNc3cc(-c4ccc(C(C)OC)cc4)ncn3)cccc12 (stereo partly shown) [Compound 811] | < 30
13 | CCOc1ccccc1CCNc1cc(-c2ccc(N3CC[C@H](O)C3)nc2)ncn1 [Compound 98] | < 30
14 | COc1cc(F)c(F)cc1[C@H](C)CNc1cc(-c2ccc(C)nc2)ncn1 [Compound 128] | < 30
15 | Cc1ccc(-c2cc(NCC(C)c3cncc4nccnc34)ncn2)cn1 (stereo not shown) [Compound 407] | < 30
16 | Cc1ccc(-c2cc(NCC(C)c3cccc4c(C)ncnc34)ncn2)cn1 (stereo not shown) [Compound 838] | < 30
17 | CNC(=O)c1ccnc2c([C@H](C)CNc3cc(-c4ccc(N5CCN(CC(F)(F)F)CC5)nc4)ncn3)cccc12 [Compound 780] | < 30
18 | CCOc1ccccc1[C@H](C)CNc1cc(-c2ccc(C)nc2)ncn1 [Compound 110] | < 30
19 | CNC(=O)c1c(F)cnc2c([C@H](C)CNc3cc(-c4ccc(OCC5CC5)nc4)ncn3)cccc12 [Compound 896] | < 30
20 | COc1ccccc1[C@H](C)CNc1cc(-c2ccnc(NCCO)c2)ncn1 [Compound 119] | < 30
21 | CC(=O)c1ccc(-c2cc(NC[C@@H](C)c3ccnc4c3OCCO4)ncn2)cc1 [Compound 456] | < 30
22 | CNC(=O)c1ccnc2c([C@H](C)CNc3cc(-c4ccc(N5Cc6ccncc6C5)nc4)ncn3)cccc12 [Compound 718] | < 30
23 | CNC(=O)c1ccnc2c([C@H](C)CNc3cc(-c4cnc(C5CCC5)nc4)ncn3)cccc12 [Compound 846] | < 30

Row | Compound | Ki [nM]
24 | CNC(=O)c1ccnc2c([C@H](C)CNc3cc(-c4cnc(C#N)c(OC)c4)ncn3)cccc12 [Compound 924] | < 30
25 | COc1ccccc1CCNc1cc(-c2ccc3ncccc3c2)ncn1 [Compound 1] | < 30
26 | CNC(=O)c1ccnc2c([C@H](C)CNc3cc(-c4ccc(C(O)C(C)C)nc4)ncn3)cccc12 (stereo partly shown) [Compound 925] | < 30
27 | CCN1CCN(c2ccc(-c3cc(NC[C@@H](C)c4cccc5c(C(=O)NC)ccnc45)ncn3)cn2)CC1=O [Compound 716] | < 30
28 | CNCCCNc1ccc(-c2cc(NC[C@@H](C)c3ccccc3OC)ncn2)cn1 [Compound 201] | < 30
29 | CNC(=O)c1ccnc2c([C@H](C)CNc3cc(-c4ccc(NC5CC5)nc4)ncn3)ccc(F)c12 [Compound 943] | < 30
30 | CNC(=O)c1ccnc2c([C@H](C)CNc3cc(-c4ccnc(C)c4)ncn3)ccc(F)c12 [Compound 903] | < 30
31 | CC(CNc1cc(-c2cnc3c(cnn3CCO)c2)ncn1)c1cc(F)c(F)cc1OC1CCC1 (stereo not shown) [Compound 382] | < 30
32 | COc1cc(C=O)ccc1C(C)CNc1cc(-c2ccc(C)nc2)ncn1 (stereo not shown) [Compound 378] | < 30
33 | COc1ccsc1C(C)CNc1cc(-c2cnc3c(cnn3C3CCN(C)CC3)c2)ncn1 (stereo not shown) [Compound 262] | < 30
34 | CNC(=O)c1ccnc2c([C@H](C)CNc3cc(-c4ccnc(N5CCCC5=O)c4)ncn3)cccc12 [Compound 893] | < 30
35 | CNC(=O)c1ccnc2c([C@H](C)CNc3cc(-c4cnc(N)c(F)c4)ncn3)cccc12 [Compound 867] | < 30
36 | CNC(=O)c1ccnc2c([C@H](C)CNc3cc(-c4cnc(N(C)C)nc4)ncn3)cccc12 [Compound 810] | < 30
37 | CNC(=O)c1ccnc2c([C@H](C)CNc3cc(-c4ccc(NCc5nc6ccccc6[nH]5)nc4)ncn3)cccc12 [Compound 710] | < 30
38 | CNC(=O)c1ccc([C@H](C)CNc2cc(-c3ccc(NCCN(C)C)nc3)ncn2)c(OC)c1 [Compound 369] | < 30
39 | CNC(=O)c1ccnc2c([C@H](C)CNc3cc(-c4ccc5c(c4)CCN(C(=O)COC)C5)ncn3)cccc12 [Compound 835] | < 30
40 | CNC(=O)c1ccnc2c([C@H](C)CNc3cc(-c4ccc(CO)s4)ncn3)cccc12 [Compound 860] | < 30
41 | CNC(=O)c1ccc([C@H](C)CNc2cc(-c3ccc(N(C)CCOC)nc3)ncn2)c(OC)c1 [Compound 370] | < 30
42 | Cc1ccc(-c2cc(NC[C@@H](C)c3ccnc4c3OCCN4)ncn2)cn1 [Compound 660] | < 30
43 | CNC(=O)c1ccc(C(C)CNc2cc(-c3ccc(OCC4CCC4)nc3)ncn2)c(OC)c1 (stereo not shown) [Compound 321] | < 30
44 | CNC(=O)c1ccnc2c([C@H](C)CNc3cc(-c4ccc(C(=O)N5CCN(C)CC5)cc4)ncn3)cccc12 [Compound 770] | < 30
45 | CNC(=O)c1ccc([C@H](C)CNc2cc(-c3ccc4ncccc4c3)ncn2)c(OC)c1 [Compound 454] | < 30
46 | CCNc1ccc(-c2cc(NC[C@@H](C)c3cccc4c(C(=O)NC)c(F)cnc34)ncn2)cn1 [Compound 979] | < 30

Results, then the compound that gave them:

Row | Ki [nM] | Compound
47 | < 30 | CNC(=O)c1ccc([C@H](C)CNc2cc(-c3cnc(C)nc3)ncn2)c(OC)c1 [Compound 308]
48 | < 30 | CNC(=O)c1ccnc2c([C@H](C)CNc3cc(-c4cnc(N5CCOCC5)c(C)c4)ncn3)cccc12 [Compound 880]
49 | < 30 | CNC(=O)c1c(N2CCOCC2)cnc2c([C@H](C)CNc3cc(-c4ccc(C)nc4)ncn3)cccc12 [Compound 767]
50 | < 30 | CC(CNc1cc(-c2cnc3c(cnn3CCO)c2)ncn1)c1ccnc2c1OCCO2 (stereo not shown) [Compound 444]
51 | < 30 | CNC(=O)c1ccnc2c([C@H](C)CNc3cc(-c4cnc5c(c4)OCCN5)ncn3)cccc12 [Compound 817]
52 | < 30 | C[C@H](CNc1cc(-c2cnc3c(cnn3C3CN(C(=O)OC(C)(C)C)C3)c2)ncn1)c1ccnc2c1OCCO2 [Compound 526]
53 | < 30 | Cc1ccc(-c2cc(NC[C@@H](C)c3cccc4c3OC(CO)C4)ncn2)cn1 (single isomer, unassigned) [Compound 538]
54 | < 30 | CNC(=O)c1ccnc2c([C@H](C)CNc3cc(-c4ccc(=O)n(C)c4)ncn3)cccc12 [Compound 655]
55 | < 30 | CC(=O)N1CCN(c2ccc(-c3cc(NCC(C)c4ccccc4OCc4ccccc4)ncn3)cn2)CC1 (stereo not shown) [Compound 135]
56 | < 30 | CNC(=O)c1ccc([C@H](C)CNc2cc(-c3ccc4c(c3)OCC(=O)N4)ncn2)c(OC)c1 [Compound 314]
57 | < 30 | CCNc1ncc(-c2cc(NC[C@@H](C)c3ccc(F)c4c(C(=O)NC)ccnc34)ncn2)cn1 [Compound 931]
58 | < 30 | CNC(=O)c1ccnc2c([C@H](C)CNc3cc(-c4cnc5c(c4)COC5)ncn3)cccc12 [Compound 952]
59 | < 30 | CNC(=O)c1ccc([C@H](C)CNc2cc(-c3ccc(N4CCCC4=O)cc3)ncn2)c(OC)c1 [Compound 313]
60 | < 30 | CNC(=O)c1ccnc2c([C@H](C)CNc3cc(-c4cncc(COC)c4)ncn3)cccc12 [Compound 840]
61 | < 30 | CNC(=O)c1ccnc2c([C@H](C)CNc3cc(-c4ccc(C(C)(C)C#N)cc4)ncn3)cccc12 [Compound 679]
62 | < 30 | Cc1ccc(-c2cc(NCC(C)c3ccncc3OC3CC3)ncn2)cn1 (stereo not shown) [Compound 287]
63 | < 30 | CCNc1ccc(-c2cc(NC[C@@H](C)c3cc(C)nc4c3OCC4)ncn2)cn1 [Compound 575]
64 | < 30 | COc1ccccc1[C@H](C)CNc1cc(-c2ccc(NC(CO)CO)nc2)ncn1 [Compound 199]
65 | < 30 | COc1cc(Br)ccc1C(C)CNc1cc(-c2ccc(C)nc2)ncn1 (stereo not shown) [Compound 423]
66 | < 30 | CNC(=O)c1ccc([C@H](C)CNc2cc(-c3ccc(NC4CCOC4)nc3)ncn2)c(OC)c1 (single isomer, unassigned) [Compound 391]
67 | < 30 | CC(=O)c1ccc(-c2cc(NC[C@@H](C)c3ccnc4c3OCC4)ncn2)cc1 [Compound 596]
68 | < 30 | CCOc1cc(F)ccc1C(C)CNc1cc(-c2ccc(C)nc2)ncn1 (stereo not shown) [Compound 100]
69 | < 30 | CNC(=O)c1c(F)cnc2c([C@H](C)CNc3cc(-c4ccnc(C5CC5)c4)ncn3)cccc12 [Compound 917]
70 | < 30 | CNC(=O)c1ccc([C@H](C)CNc2cc(-c3cnc(NC)nc3)ncn2)c(OC)c1 [Compound 304]
71 | < 30 | Cc1ccc(-c2cc(NCC(C)c3ccccc3OC3CCCC3)ncn2)cn1 (stereo not shown) [Compound 241]
72 | < 30 | CCOc1ccc(-c2cc(NC[C@@H](C)c3cccc4c(C(=O)NC)c(F)cnc34)ncn2)cn1 [Compound 932]
73 | < 30 | Cc1ccc(-c2cc(NCC(C)c3ccccc3OCC3CCCO3)ncn2)cn1 (stereo not shown) [Compound 195]
74 | < 30 | COCCn1ncc2cc(-c3cc(NC[C@@H](C)c4ccccc4OC)ncn3)cnc21 [Compound 139]
75 | < 30 | COc1sccc1C(C)CNc1cc(-c2ccc(C)nc2)ncn1 (stereo not shown) [Compound 257]
76 | < 30 | Cc1ccc(-c2cc(NC[C@@H](C)c3cccc4c(C(N)=O)ccnc34)ncn2)cn1 [Compound 494]

— US10391095B2, “DNA-PK inhibitors” (Vertex Pharmaceuticals Incorporated, priority 2012, dated 2019)
